{"source": "PubChem BioAssay (NCI)", "assay_in_all_cases": "inhibition of tumour cell growth, NCI panel, 48 h", "key": {"EKVX NSCLC": {"tested_on": "EKVX NSCLC"}, "OVCAR-3 ovarian": {"tested_on": "OVCAR-3 ovarian"}, "UO-31 renal": {"tested_on": "UO-31 renal"}, "NCI-H226 lung": {"tested_on": "NCI-H226 lung"}, "RPMI-8226 leukemia": {"tested_on": "RPMI-8226 leukemia"}, "SN12C renal": {"tested_on": "SN12C renal"}, "COLO 205 colon": {"tested_on": "COLO 205 colon"}, "SK-OV-3 ovarian": {"tested_on": "SK-OV-3 ovarian"}, "K-562 leukemia": {"tested_on": "K-562 leukemia"}, "NCI-H460 lung": {"tested_on": "NCI-H460 lung"}}, "note": "Values joined by “and” are separate entries in the source; they are usually repeats but may differ in a detail not shown here. Equal values may be shown once.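 Method: 48-hour compound exposure of cells in 96-well plates, five concentrations, linear interpolation of endpoints. Abbreviation: GI50, concentration required for 50% inhibition of growth. TGI denotes the concentration required for complete inhibition of growth.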 Where a SMILES comes first, the peptide text is derived from it. [ ]: non-standard residue; d: D form. Ac5c = NC1(C(=O)O)CCCC1", "data": [{"smiles": "O=c1c2cc(Cl)ccc2oc2ccc(OCCCCCN3CCCCC3)cc12", "values": [{"measurement": "GI50", "setting": "EKVX NSCLC", "value": 6.25, "unit": "µM"}, {"measurement": "TGI", "setting": "EKVX NSCLC", "value": 13.2, "unit": "µM"}, {"measurement": "GI50", "setting": "OVCAR-3 ovarian", "value": 5.47, "unit": "µM"}, {"measurement": "TGI", "setting": "OVCAR-3 ovarian", "value": 11.5, "unit": "µM"}, {"measurement": "GI50", "setting": "UO-31 renal", "value": 3.98, "unit": "µM"}, {"measurement": "TGI", "setting": "UO-31 renal", "value": 10.4, "unit": "µM"}, {"measurement": "GI50", "setting": "NCI-H226 lung", "value": 8.74, "unit": "µM"}, {"measurement": "TGI", "setting": "NCI-H226 lung", "value": 18.6, "unit": "µM"}, {"measurement": "GI50", "setting": "RPMI-8226 leukemia", "value": 3.6, "unit": "µM"}, {"measurement": "TGI", "setting": "RPMI-8226 leukemia", "value": 12.4, "unit": "µM"}, {"measurement": "GI50", "setting": "SN12C renal", "value": 5.59, "unit": "µM"}, {"measurement": "TGI", "setting": "SN12C renal", "value": 11.9, "unit": "µM"}, {"measurement": "GI50", "setting": "COLO 205 colon", "value": 1, "unit": "µM"}, {"measurement": "TGI", "setting": "COLO 205 colon", "value": 2.29, "unit": "µM"}, {"measurement": "GI50", "setting": "SK-OV-3 ovarian", "value": 6.96, "unit": "µM"}, {"measurement": "TGI", "setting": "SK-OV-3 ovarian", "value": 13.4, "unit": "µM"}, {"measurement": "GI50", "setting": "K-562 leukemia", "value": 1.76, "unit": "µM"}, {"measurement": "TGI", "setting": "K-562 leukemia", "value": 7.55, "unit": "µM"}, {"measurement": "GI50", "setting": "NCI-H460 lung", "value": 1.73, "unit": "µM"}, {"measurement": "TGI", "setting": "NCI-H460 lung", "value": 5.55, "unit": "µM"}]}, {"smiles": "CCOC(=O)Nc1nc2ccc(Cn3cccc3)cc2[nH]1", "values": [{"measurement": "TGI", "setting": "EKVX NSCLC", "value": "> 100", "unit": "µM"}, {"measurement": "TGI", "setting": "OVCAR-3 ovarian", "value": 6.3, "unit": "µM"}, {"measurement": "TGI", "setting": "UO-31 renal", "value": "> 100", "unit": "µM"}, {"measurement": "TGI", "setting": "NCI-H226 lung", "value": 32.1, "unit": "µM"}, {"measurement": "TGI", "setting": "RPMI-8226 leukemia", "value": "> 100", "unit": "µM"}, {"measurement": "TGI", "setting": "SN12C renal", "value": "> 100", "unit": "µM"}, {"measurement": "TGI", "setting": "COLO 205 colon", "value": 17.7, "unit": "µM"}, {"measurement": "TGI", "setting": "SK-OV-3 ovarian", "value": "> 100", "unit": "µM"}, {"measurement": "TGI", "setting": "K-562 leukemia", "value": "> 100", "unit": "µM"}, {"measurement": "TGI", "setting": "NCI-H460 lung", "value": "> 100", "unit": "µM"}]}, {"smiles": "COC(=O)CCc1cc(OC)c2c(c1)C(C(=O)OC)C(c1ccc(OC)c(OC)c1)O2", "note": "(centres undefined)", "values": [{"measurement": "TGI", "setting": "EKVX NSCLC", "value": "> 100", "unit": "µM"}, {"measurement": "GI50", "setting": "OVCAR-3 ovarian", "value": "> 100 µM and 13.9 µM"}, {"measurement": "TGI", "setting": "OVCAR-3 ovarian", "value": "> 100", "unit": "µM"}, {"measurement": "GI50", "setting": "UO-31 renal", "value": "84.9 µM and 36.8 µM"}, {"measurement": "TGI", "setting": "UO-31 renal", "value": "> 100", "unit": "µM"}, {"measurement": "TGI", "setting": "NCI-H226 lung", "value": "> 100 µM and 54.5 µM"}, {"measurement": "GI50", "setting": "RPMI-8226 leukemia", "value": "> 100 µM and 22.3 µM"}, {"measurement": "TGI", "setting": "RPMI-8226 leukemia", "value": "> 100", "unit": "µM"}, {"measurement": "TGI", "setting": "SN12C renal", "value": "> 100", "unit": "µM"}, {"measurement": "GI50", "setting": "COLO 205 colon", "value": "> 100 µM and 21.6 µM"}, {"measurement": "TGI", "setting": "COLO 205 colon", "value": "> 100", "unit": "µM"}, {"measurement": "GI50", "setting": "SK-OV-3 ovarian", "value": "> 100 µM and 39.6 µM"}, {"measurement": "TGI", "setting": "SK-OV-3 ovarian", "value": "> 100", "unit": "µM"}, {"measurement": "TGI", "setting": "K-562 leukemia", "value": "> 100", "unit": "µM"}, {"measurement": "GI50", "setting": "NCI-H460 lung", "value": "> 100 µM and 46.4 µM"}, {"measurement": "TGI", "setting": "NCI-H460 lung", "value": "> 100", "unit": "µM"}]}, {"smiles": "CCCCCCCCC[C@@H]1CC(=O)OCC2OC(O[C@H](CCCCCCCCC)CC(=O)OCC3OC(O[C@H](CCCCCCCCC)CC(=O)OCC4OC(O1)C(O)C(O)C4O)C(O)C(O)C3O)C(O)C(O)C2O", "note": "(some centres undefined)", "values": [{"measurement": "TGI", "setting": "EKVX NSCLC", "value": 25.1, "unit": "µM"}, {"measurement": "TGI", "setting": "OVCAR-3 ovarian", "value": 32.1, "unit": "µM"}, {"measurement": "TGI", "setting": "UO-31 renal", "value": 24.6, "unit": "µM"}, {"measurement": "TGI", "setting": "NCI-H226 lung", "value": 24.6, "unit": "µM"}, {"measurement": "TGI", "setting": "RPMI-8226 leukemia", "value": 32.7, "unit": "µM"}, {"measurement": "TGI", "setting": "SN12C renal", "value": 28, "unit": "µM"}, {"measurement": "TGI", "setting": "COLO 205 colon", "value": 8.3, "unit": "µM"}, {"measurement": "TGI", "setting": "SK-OV-3 ovarian", "value": 26.5, "unit": "µM"}, {"measurement": "TGI", "setting": "K-562 leukemia", "value": 15.1, "unit": "µM"}, {"measurement": "TGI", "setting": "NCI-H460 lung", "value": 17.3, "unit": "µM"}]}, {"smiles": "COc1cc(C(=O)/C(C)=C/c2c[nH]c3ccccc23)cc(OC)c1OC", "values": [{"measurement": "GI50", "setting": "EKVX NSCLC", "value": 0.0053, "unit": "µM"}, {"measurement": "TGI", "setting": "EKVX NSCLC", "value": "> 100", "unit": "µM"}, {"measurement": "GI50", "setting": "OVCAR-3 ovarian", "value": 0.00334, "unit": "µM"}, {"measurement": "TGI", "setting": "OVCAR-3 ovarian", "value": 0.0107, "unit": "µM"}, {"measurement": "GI50", "setting": "UO-31 renal", "value": 0.00796, "unit": "µM"}, {"measurement": "TGI", "setting": "UO-31 renal", "value": "> 100", "unit": "µM"}, {"measurement": "TGI", "setting": "NCI-H226 lung", "value": "> 100", "unit": "µM"}, {"measurement": "GI50", "setting": "RPMI-8226 leukemia", "value": 0.00482, "unit": "µM"}, {"measurement": "TGI", "setting": "RPMI-8226 leukemia", "value": 4.55, "unit": "µM"}, {"measurement": "TGI", "setting": "SN12C renal", "value": "> 100", "unit": "µM"}, {"measurement": "GI50", "setting": "COLO 205 colon", "value": 0.00354, "unit": "µM"}, {"measurement": "TGI", "setting": "COLO 205 colon", "value": 0.0159, "unit": "µM"}, {"measurement": "GI50", "setting": "SK-OV-3 ovarian", "value": 0.00768, "unit": "µM"}, {"measurement": "TGI", "setting": "SK-OV-3 ovarian", "value": 76.8, "unit": "µM"}, {"measurement": "GI50", "setting": "K-562 leukemia", "value": 0.00346, "unit": "µM"}, {"measurement": "TGI", "setting": "K-562 leukemia", "value": "> 100", "unit": "µM"}, {"measurement": "GI50", "setting": "NCI-H460 lung", "value": 0.00369, "unit": "µM"}, {"measurement": "TGI", "setting": "NCI-H460 lung", "value": "> 100", "unit": "µM"}]}, {"smiles": "COc1ccccc1N1C(=O)/C(=C/c2ccc(N(CCC#N)CCC#N)cc2C)N=C1c1cc([N+](=O)[O-])ccc1Cl", "values": [{"measurement": "TGI", "setting": "EKVX NSCLC", "value": "> 100", "unit": "µM"}, {"measurement": "TGI", "setting": "OVCAR-3 ovarian", "value": "> 100", "unit": "µM"}, {"measurement": "TGI", "setting": "UO-31 renal", "value": "> 100", "unit": "µM"}, {"measurement": "TGI", "setting": "NCI-H226 lung", "value": "> 100", "unit": "µM"}, {"measurement": "TGI", "setting": "RPMI-8226 leukemia", "value": "> 100", "unit": "µM"}, {"measurement": "TGI", "setting": "SN12C renal", "value": "> 100", "unit": "µM"}, {"measurement": "TGI", "setting": "COLO 205 colon", "value": "> 100", "unit": "µM"}, {"measurement": "TGI", "setting": "SK-OV-3 ovarian", "value": "> 100", "unit": "µM"}, {"measurement": "TGI", "setting": "K-562 leukemia", "value": "> 100", "unit": "µM"}, {"measurement": "TGI", "setting": "NCI-H460 lung", "value": "> 100", "unit": "µM"}]}, {"smiles": "NC1(C(=O)NC2(C(=O)O)CCCC2)CCCC1", "note": "(H-[Ac5c]-[Ac5c]-OH)", "values": [{"measurement": "TGI", "setting": "EKVX NSCLC", "value": "> 100", "unit": "µM"}, {"measurement": "TGI", "setting": "OVCAR-3 ovarian", "value": "> 100", "unit": "µM"}, {"measurement": "TGI", "setting": "UO-31 renal", "value": "> 100", "unit": "µM"}, {"measurement": "TGI", "setting": "NCI-H226 lung", "value": "> 100", "unit": "µM"}, {"measurement": "TGI", "setting": "RPMI-8226 leukemia", "value": "> 100", "unit": "µM"}, {"measurement": "TGI", "setting": "SN12C renal", "value": "> 100", "unit": "µM"}, {"measurement": "TGI", "setting": "COLO 205 colon", "value": "> 100", "unit": "µM"}, {"measurement": "TGI", "setting": "SK-OV-3 ovarian", "value": "> 100", "unit": "µM"}, {"measurement": "TGI", "setting": "K-562 leukemia", "value": "> 100", "unit": "µM"}, {"measurement": "TGI", "setting": "NCI-H460 lung", "value": "> 100", "unit": "µM"}]}]}
